Laboratory results from ChEMBL document CHEMBL1136832, “Synthesis of 7-chloro-2,3-dihydro-2-[1-(pyridinyl)alkyl]-pyridazino[4,5-b]quinoline-1,4,10(5H)-triones as NMDA glycine-site antagonists” (Bioorg Med Chem Lett, 2003).

What was measured:
[1] = Oral bioavailability in rat; conditions: in vivo
[2] = tested on: Caco-2; conditions: Homo sapiens
Description: Cellular permeability in Caco-2 cells.

[3] = target: Glutamate NMDA receptor; assay type: cell membranes, Membrane
Description: Affinity for glycine site of NMDA receptor on rat brain membranes by displacement of [3H]- MDL 105,519.

[4] = physchem; conditions: buffer, pH 7.4

SMILES	bioavailability [1]	Permeability [2]	Ki [3]	solubility [4]
O=c1[nH]n(Cc2ccncc2)c(=O)c2c(=O)c3ccc(Cl)cc3[nH]c12	5%	2e-07	–	–
O=c1[nH]n(Cc2cc[n+]([O-])cc2)c(=O)c2c(O)c3ccc(Cl)cc3nc12	–	5e-07	0.439 µM	> 160 µg/mL
CC(C)CC(c1ccccn1)n1[nH]c(=O)c2nc3cc(Cl)ccc3c(O)c2c1=O.CS(=O)(=O)O (stereo not drawn)	–	9.1e-06	> 10 µM	> 130 µg/mL
CCC(c1ccccn1)n1[nH]c(=O)c2nc3cc(Cl)ccc3c(O)c2c1=O (stereo not drawn)	–	–	2.36 µM	–
CS(=O)(=O)O.O=c1[nH]n(C(c2ccccc2)c2ccncc2)c(=O)c2c(O)c3ccc(Cl)cc3nc12 (stereo not drawn)	–	4e-06	> 10 µM	130 µg/mL
CC(c1cc[n+]([O-])cc1)n1[nH]c(=O)c2nc3cc(Cl)ccc3c(O)c2c1=O (stereo not drawn)	–	–	2.42 µM	–
CS(=O)(=O)O.O=c1[nH]n(C(c2ccccn2)C2CC2)c(=O)c2c(O)c3ccc(Cl)cc3nc12 (stereo not drawn)	–	9.8e-06	0.996 µM	490 µg/mL
CC(C)CC(c1ccncc1)n1[nH]c(=O)c2nc3cc(Cl)ccc3c(O)c2c1=O.CS(=O)(=O)O (stereo not drawn)	–	1.1e-05	5.23 µM	> 170 µg/mL
CS(=O)(=O)O.O=c1[nH]n(C(c2ccccn2)C2CCCC2)c(=O)c2c(O)c3ccc(Cl)cc3nc12 (stereo not drawn)	–	5.6e-06	> 10 µM	> 170 µg/mL
CCCCC(c1ccccn1)n1[nH]c(=O)c2nc3cc(Cl)ccc3c(O)c2c1=O.CS(=O)(=O)O (stereo not drawn)	–	1.6e-05	> 10 µM	> 220 µg/mL
CCCC(c1ccncc1)n1[nH]c(=O)c2nc3cc(Cl)ccc3c(O)c2c1=O.CS(=O)(=O)O (stereo not drawn)	–	1.6e-05	4.34 µM	> 220 µg/mL
CCC(c1ccncc1)n1[nH]c(=O)c2[nH]c3cc(Cl)ccc3c(=O)c2c1=O.CS(=O)(=O)O (stereo not drawn)	17%	1.1e-05	–	> 200 µg/mL
CC(c1ccncc1)n1[nH]c(=O)c2[nH]c3cc(Cl)ccc3c(=O)c2c1=O.CS(=O)(=O)O (stereo not drawn)	30%	5.8e-06	–	–
